The text below walks through data of patent US20230119082A1, “(AZIRIDINYL HYDROXY)-FUNCTIONAL ORGANIC COMPOUNDS” (COVESTRO (NETHERLANDS) B.V., priority 2020, published 2023).

For one data set, the system named is Bscl2-GFP. Briefly: in vitro. Particulars: mouse; for fold induction at 3 h / fold induction at 24 h: −fold induction Bscl 2. As to the method:
(§1) In the context of the specification, the genotoxicity is measured according to the ToxTracker® assay (Toxys, Leiden, the Netherlands) as described in the Examples.
(§2) The genotoxicity was determined according to the ToxTracker® assay (Toxys, Leiden, the Netherlands) as described below.
(§3) This methodology uses a two-step approach.
(§4) Positive reference treatment with cisplatin (DNA damage) was included in all experiments. Metabolic was evaluated by the addition of S9 liver extract. […] Only GFP expression in single intact cells is determined. Mean GFP fluorescence and cell concentrations in each well are measured, which is used for cytotoxicity assessment. Data were analyzed using ToxPlot software (Toxys, Leiden, the Netherlands).

The next data set concerns Rtkn-GFP. Briefly: in vitro. Particulars: mouse. As for the experimental part:
as §1, §2, §3, §4

By fold induction is commonly meant the ratio of treated to control signal. The low end stands for little rise in signal, the high end for a large rise in signal. Regarding `CC1CN1CC(O)CN(Cc1cccc(CN(CC(O)CN2CC2C)CC(O)CN2CC2C)c1)CC(O)CN1CC1C` (stereo not drawn) [Example 2C], in the data set on Bscl2-GFP, the fold induction at 3 h came out at 1.3 and the fold induction at 24 h turned out to be 1.3.
In the data set on Bscl2-GFP, `CC1CN1CC(O)COc1ccc(N(CC(O)CN2CC2C)CC(O)CN2CC2C)cc1` (stereo not drawn) [Example 3C] came in with a fold induction at 3 h of 1.2 and a fold induction at 24 h of 1.1. In addition, the fold induction at 24 h in the data set on Rtkn-GFP is 1.7.
Regarding `CC1CN1CC(O)COC(=O)NCCCCCCn1c(=O)n(CCCCCCNC(=O)OCC(O)CN2CC2C)c(=O)n(CCCCCCNC(=O)OCC(O)CN2CC2C)c1=O` (stereo not drawn) [Example 3], the “−fold induction Bscl 2” value in the data set with Bscl2-GFP (3 h) came out at 1.5 fold. In the data set with Bscl2-GFP, this compound displayed a fold induction at 3 h of 1.2 and a fold induction at 24 h of 1.1. In the data set with Rtkn-GFP, this compound registered a fold induction at 3 h of 1.1 and a fold induction at 24 h of 1.2.
In the data set with Bscl2-GFP, `CC1CN1CC(O)COc1ccc(C(C)(C)c2ccc(OCC(O)CN3CC3C)cc2)cc1` (stereo not drawn) [Example 4C] showed a fold induction at 3 h of 1.1 and a fold induction at 24 h of 1.1.
